Measured values taken from patent publication US9302993B2, “8-hydroxy quinoline derivatives” (PRANA BIOTECHNOLOGY LIMITED, priority 2002, dated 2016).
Several values for one entry are separate records, joined by “and”; a condition that tells them apart may be missing. Identical values can stand only once. Like-named read-outs stand apart in the source and are kept apart here.

Legend:
[1] = system: Aβ in extract of tissue from post mortem human AD brain; experiment: Human brain amyloid solubilisation assay (Assay 9, BAS); type: biochemical
Experimental: Assay 9. Human Brain Amyloid Solubilisation Assay
This assay was performed in order to assess the ability of a test compound to mobilise Aβ from the insoluble to the soluble phase of an extract of tissue from post mortem human AD brain.
Up to 0.5 g of plaque-bearing cortex without meninges was homogenized using a DIAX 900 homogenizer (Heudolph and Co, Kelheim, Germany) or other suitable device for three 30-second periods at full speed in 2 ml of ice-cold phosphate-buffered saline, pH 7.4. To obtain the phosphate-buffered saline-extractable fraction, the homogenate was centrifuged at 100,000×g for 30 min and the supernatant removed. Alternatively, the tissue was freeze dried then pulverised to form a powder which was then weighed out into aliquots for extraction as above. Supernatant, either freeze-dried and resuspended or in unconcentrated form, was dissolved in 200 μl of Tris-Tricine sodium dodecyl sulfate (SDS) sample buffer pH 8.3 containing 8% SDS, 10% 2-mercaptoethanol. Aliquots (10 μl) were then boiled for 10 minutes before SDS-polyacrylamide gel electrophoresis. The insoluble fraction of the cortical samples was obtained by resuspending the initial pelleted sample in 1 ml of phosphate-buffered saline. A 50-μl aliquot of this suspension was then boiled in […] of sample buffer as above.
Tris-Tricine polyacrylamide gel electrophoresis was performed by loading appropriately diluted samples on to 10% to 20% gradient gels (Novex, San Diego, Calif.) followed by transfer on to 0.2-μm nitrocellulose membrane (Bio-Rad, Hercules, Calif.). Aβ was detected by using monoclonal antibody W02, which detects residues 5 through 8, […] (or another suitable antibody) in conjunction with horseradish peroxidase-conjugated rabbit anti-mouse IgG (Dako, Denmark), and visualized by using enhanced chemiluminescence (eg ECL; Amersham Life Science, Buckinghamshire, UK). Each gel included three lanes containing 0.5, 1, and 2 ng of synthetic Aβ40 (Keck Laboratory, Yale University, New Haven, Conn.) as reference standards.
Blot films were scanned by using a suitable imaging system such as the UVP gel documentation system, and densitometry performed using suitable software, eg UVP Labworks. The dynamic range of the film/scanner was determined by using a step tablet (No. 911ST600, Kodak, Rochester N.Y.), a calibrated film exposed by the manufacturer to provided steps of known increasing intensity. The quantifiable range of signal intensity for densitometric analysis of the mono- and dimeric Aβ bands was based on the comparison with a curve obtained by scanning and densitometry of the step tablet.
All samples were analysed at least twice, and gel loadings and dilutions were adjusted to fit within the quantifiable region of the standard curve. […] The insoluble Aβ being comprised of the pelletable fraction derived from the insoluble amyloid plaque from the above cortical samples and the soluble fraction comprising monomeric and/or oligomeric soluble Aβ.

[2] = target: T1, hydrogen peroxide generation by Aβ in the presence of copper (Homo sapiens, UniProt P05067); experiment: Fluorometric H2O2 assay (Assay 1); type: biochemical; conditions: Aβ 1-42 with Cu-Gly, DCF/HRP, 37 C 60 min; several values in one cell = repeat determinations; read-out: Peroxide IC50
T1 construct: The reaction solutions contained Aβ 1-42 at concentrations in the range of 50 nM to 1 μM
T1 sequence (P05067 672-713 limits assumed): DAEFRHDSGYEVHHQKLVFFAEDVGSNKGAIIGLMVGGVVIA
Experimental: Assay 1. Fluorometric H2O2 Assay
A fluorometric assay was used to test the ability of a test compound to inhibit hydrogen peroxide generation by Aβ in the presence of copper based on dichlorofluoroscein diacetate (DCF; Molecular Probes, Eugene Oreg.). The DCF solution (5 mM) in 100% dimethyl sulphoxide (previously purged with argon for 2 hr at 20° C.) was deacetylated in the presence of 0.25M NaOH for 30 min and neutralised at pH 7.4 to a final concentration of 1 mM. Horseradish peroxidase (HRP) stock solution was prepared to 1 μM at pH 7.4. The reactions were carried out in PBS, pH 7.4 in a 96 well plate (total volume=250 μl/well). The reaction solutions contained Aβ 1-42 at concentrations in the range of 50 nM to 1 μM, copper-glycine chelate (Cu-Gly), was prepared by adding CuCl2 to glycine in the ratio of 1:6 and added to the Aβ in the proportion 2Cu-Gly: 1Aβ), reducing agents including dopamine (5 μM) or ascorbic acid, deacetylated DCF 100 μM, and HRP, 0.1 μM. […] The reaction mixture was incubated at 37 C for 60 min. […] H2O2 concentration may be established by comparing fluorescence with the H2O2 standards. Inhibition of AB H2O2 production was assayed by including a given concentration of test compound(s) in the test wells.

Neuronal cortical cells = experiment: Assay for test compound cytoxicity, MTS (Assay 3(d)); type: cell-based, mouse; conditions: BL6J×129sv, mouse, 4 days, 10 uM
Experimental: Media was then replaced with Neurobasal media (Invitrogen Life Technologies) and B27 supplements (Invitrogen Life Technologies). Cultures were maintained at 37° C. in 5% CO2. Prior to experimentation, the culture medium was replaced with Neurobasal media and B27 minus antioxidants (Invitrogen Life Technologies).
Cell viability is determined using the MTS assay. Culture medium is […] replaced with fresh neurobasal medium plus B27 supplements minus antioxidants. 1/10th volume MTS solution (Cell Titre 96 Aqueous One, Promega Corporation) and incubated at 37° C., 2 hrs. 200 microliter aliquots are measured with a spectrophotometer at 560 nm.
(d) Assay for Test Compound Cytoxicity
Neuronal cortical cells were cultured for five days as per Assay 2 in NB media and B27 supplement.
On day six the test compounds were added to the neuronal cell cultures in NB media and B27 supplement minus antioxidants.
Test compounds were dissolved in 100% DMSO to a concentration of 2.5 mM (10 mM if excess compound was weighed out per vial—then diluted to 2.5 mM). […] Test compounds were not added directly to cells, instead they were added to a 48 well ‘Drug Plate’ as comprised below:
The Drug Plate was incubated at 37° C. for 15 mins. 200 ul of each well was added in triplicate to the corresponding cell plate. The cell plate was incubated at 37 C, for 4 days.
On completion of the assay, 1/10 volume MTS was added per well of plate (ie 25 ul/250 ul). The plates were incubated at 37 C for 2 hrs, and then absorbance was read at 560 nm.

[3] = solubilising plaques relative to PBS

| Structure (SMILES) | BAS Score [1, 3] | IC50 [2] | Viable 10 uM (Neuronal cortical cells) | BAS Score [1] |
| --- | --- | --- | --- | --- |
| O=S(=O)(O)c1cc(I)c(O)c2ncccc12 [compound 43] | − | 0.6 µM | 91.02 |  |
| Nc1ccc(O)c2ncccc12 [compound 44] |  |  | 71.05 | + |
| Oc1c(I)cc(I)c2cccnc12 [compound 46] | − | 1 µM | 91.97 |  |
| Oc1ccc(Cl)c2cccnc12 [compound 48] | − | 0.8 µM | 85 |  |
| Oc1c(-c2ccccc2)cc(Cl)c2cccnc12 [compound 808] |  | > 10 µM | 71.89 |  |
| Oc1c(-c2ccccc2)cc(-c2ccccc2)c2cccnc12 [compound 809] | + | < 4 µM and 1.8 µM | 26.31 |  |
| O=[N+]([O-])c1cccc(-c2cc(Cl)c3cccnc3c2O)c1 [compound 811] |  | > 10 µM | 78.46 |  |
| Oc1c(-c2ccc(F)cc2)cc(Cl)c2cccnc12 [compound 812] |  | > 10 µM | 75.36 |  |
| Oc1c(-c2cc(F)cc(F)c2)cc(Cl)c2cccnc12 [compound 813] |  | > 10 µM | 66 |  |
| Oc1c(-c2ccccc2F)cc(Cl)c2cccnc12 [compound 815] |  | > 10 µM | 53.68 |  |
| O=Cc1ccccc1-c1cc(Cl)c2cccnc2c1O [compound 849] |  | 4.5 µM | 98.83 |  |
| Oc1c(-c2cccc(F)c2)cc(Cl)c2cccnc12 [compound 850] |  | > 10 µM | 71.28 |  |
| CN(C)c1ccc(-c2cc(Cl)c3cccnc3c2O)cc1 [compound 851] | − | < 0.7 µM |  |  |
| Cc1ccccc1-c1cc(-c2ccccc2C)c2cccnc2c1O [compound 852] | + |  | 33.52 |  |
| Cc1cccc(-c2cc(Cl)c3cccnc3c2O)c1 [compound 859] | + |  |  |  |
| Oc1c(I)cc(-c2ccccc2C(F)(F)F)c2cccnc12 [compound 860] | + |  |  |  |
| Cc1ccccc1-c1cc(I)c(O)c2ncccc12 [compound 861] | + | 0.91 µM | 37.83 |  |
| COc1ccccc1-c1cc(-c2ccccc2OC)c2cccnc2c1O [compound 862] | + |  |  |  |
| COc1ccccc1-c1cc(I)c(O)c2ncccc12 [compound 863] | + |  | 34.97 |  |
| Oc1c(I)cc(-c2ccccc2F)c2cccnc12 [compound 865] |  | > 10 µM | 34.07 |  |
| O=C(NCc1ccccn1)c1ccc2cccc(O)c2n1 [compound 949] | + | 0.9 µM | 84.82 |  |
| O=C(Nc1ccccc1O)c1ccc2cccc(O)c2n1 [compound 951] | − | 1.43 µM | 91.86 |  |

| Structure (SMILES) | BAS Score [1, 3] | IC50 [2] | Viable 10 uM (Neuronal cortical cells) | BAS Score [1] |
| --- | --- | --- | --- | --- |
| O=C(NCCc1cnc[nH]1)c1cc(O)c2cccc(O)c2n1 [compound 954] | − | 0.18 µM | 104.9 |  |
| O=C(NCc1ccccn1)c1cc(O)c2cccc(O)c2n1 [compound 955] | − | 0.26 µM and 0.18 µM | 100 |  |
| O=C(O)CNC(=O)c1ccc2cccc(O)c2n1 [compound 956] |  | > 10 µM | 89 |  |
| NCCNC(=O)c1ccc2cccc(O)c2n1 [compound 957] | + |  | 95.86 |  |
| N=C(N)NCc1ccc2cccc(O)c2n1 [compound 966] | + | 4.3 µM | 88.61 |  |
| CC(=O)NCc1ccc2cccc(O)c2n1 [compound 967] |  | 7.8 µM | 90.69 |  |
| Oc1c(-c2cc3ccccc3s2)cc(Cl)c2cccnc12 [compound 970] |  | 6.7 µM | 32.33 |  |
| Oc1c(-c2cc(Cl)c3cccnc3c2O)cc(Cl)c2cccnc12 [compound 971] |  | > 10 µM | 84.29 |  |
| Oc1c(-c2ccsc2)cc(Cl)c2cccnc12 [compound 972] |  | > 10 µM | 30.59 |  |
| Oc1c(-c2ccc(F)cc2F)cc(Cl)c2cccnc12 [compound 973] |  | > 10 µM | 42.38 |  |
| Oc1c(-c2ccccc2C(F)(F)F)cc(-c2ccccc2C(F)(F)F)c2cccnc12 [compound 974] | + | 0.6 µM |  |  |
| Oc1c(-c2ccccc2F)cc(-c2ccccc2F)c2cccnc12 [compound 975] | + | 3.2 µM |  |  |
| CC(=O)c1ccc2cccc(O)c2n1 [compound 976] | − | 3.7 µM |  |  |
| O=C(CNC(=O)c1cc(O)c2cccc(O)c2n1)NCc1ccccn1 [compound 988] | − |  | 93.27 |  |
| Oc1cccc2ccc(CNCCc3c[nH]cn3)nc12 [compound 989] | − | 0.42 µM | 43.24 |  |
| Oc1cccc2ccc(CNCc3ccccn3)nc12 [compound 991] | + |  |  |  |
| CC(=O)Nc1ccc(O)c2ncccc12 [compound 1028] |  | 0.32 µM |  |  |
| Oc1ccc(F)c2cccnc12 [compound 1034] |  | 0.44 µM |  |  |
| O=S(=O)(NCCc1c[nH]cn1)c1ccc2cccc(O)c2n1 [compound 1035] |  | > 10 µM |  |  |
| Oc1cccc2cc3ccccc3nc12 [compound 1043] |  | 0.64 µM |  |  |
| CNc1ccc2c(Cl)cc(Cl)c(O)c2n1 [compound 1047, 5,7-Dichloro-2-methylamino-8-hydroxyquinoline] |  | > 10 µM |  |  |
| Nc1cnc2c(O)c(Cl)cc(Cl)c2c1 [compound 1060, 3-amino-5,7-dichloro-8-hydroxyquinoline] |  | 0.5 µM |  |  |
